# Data: US10975037B2 (priority 2018, dated 2021)
# Read-outs that look alike come from different tables or passages of the source.
# Assays:
# full-length human RORγt = full-length human RORγt (Homo sapiens (Human), UniProt P51449); assay: RORγt (full-length human) reporter assay, conditions A or B, HEK293T cells; type: cell-based; conditions: for inhibition at 6 µM: read-out: RORγt (FL) Reporter Assay A or B, % inhibition @ 6 μM; for IC50: RORγt (FL) Reporter Assay A or B, IC50, HEK293T cells; for inhibition at 2 µM: 2 μM compound concentration; for inhibition at 0.67 µM: 0.67 μM compound concentration (footnote ****); for inhibition at […]: 0.22 μM compound concentration (footnote *******)
# Summary of the method: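 After 16–20 h, dual firefly/Renilla luciferase luminescence was read. Firefly signal was normalized to DMSO and saturating reference compound, then to Renilla, and fitted for IC50; % inhibition is versus DMSO.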
# [1] = biological target: human RORγt ligand binding domain (RORγt LBD) (Homo sapiens (Human), UniProt P51449); assay: RORγt ThermoFluor® assay (thermal shift binding)
# Summary of the method: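 Thermal shift with 0.065 mg/mL RORγt LBD and 60 μM 1,8-ANS in 100 mM Hepes pH 7.0, 10 mM NaCl, 2.5 mM GSH, 0.002% Tween-20.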
# [2] = HEK-293T, 6 μM compound concentration
# [3] = read-out: ThermoFluor® Assay, Kd
# [4] = HEK-293T, read-out: RORγt (FL) Reporter Assay A or B, % inhibition
# human RORγt ligand binding domain (RORγt LBD), sequence (P51449 other isoform, or with tags, fused parts or gaps): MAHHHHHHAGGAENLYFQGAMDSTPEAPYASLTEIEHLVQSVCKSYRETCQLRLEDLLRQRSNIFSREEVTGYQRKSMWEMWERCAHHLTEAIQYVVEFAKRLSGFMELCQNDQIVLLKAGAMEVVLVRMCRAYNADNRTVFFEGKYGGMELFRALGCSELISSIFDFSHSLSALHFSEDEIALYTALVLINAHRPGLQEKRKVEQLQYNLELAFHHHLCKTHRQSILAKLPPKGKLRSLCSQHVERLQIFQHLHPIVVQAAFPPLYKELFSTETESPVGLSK
# full-length human RORγt, sequence (P51449 other isoform, or with tags, fused parts or gaps): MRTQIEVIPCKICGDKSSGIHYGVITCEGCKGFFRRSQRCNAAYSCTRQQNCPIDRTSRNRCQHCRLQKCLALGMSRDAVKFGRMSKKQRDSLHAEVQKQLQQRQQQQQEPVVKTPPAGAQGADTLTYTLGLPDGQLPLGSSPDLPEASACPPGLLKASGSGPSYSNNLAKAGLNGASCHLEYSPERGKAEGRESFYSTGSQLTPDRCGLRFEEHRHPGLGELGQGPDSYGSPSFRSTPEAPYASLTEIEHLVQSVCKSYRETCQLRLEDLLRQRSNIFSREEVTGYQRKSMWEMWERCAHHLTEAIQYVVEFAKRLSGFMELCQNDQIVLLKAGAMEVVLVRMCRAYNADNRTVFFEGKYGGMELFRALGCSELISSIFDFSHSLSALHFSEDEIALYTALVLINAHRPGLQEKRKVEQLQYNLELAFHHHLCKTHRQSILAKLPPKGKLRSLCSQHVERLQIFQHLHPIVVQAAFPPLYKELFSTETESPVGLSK
Structure (SMILES),IC50 (full-length human RORγt),"Kd [1, 3]",inhibition at 2 µM (full-length human RORγt; [4]),further results
"CCn1nc(C(=O)NC[C@]2(O)CC[C@@H](S(C)(=O)=O)CC2)c(C#N)c1-c1ccc(CC(C)C(F)(F)F)cc1OC (stereo partly drawn) [Example 122, 4-Cyano-1-ethyl-N-(((1s,4s)-1-hydroxy-4-(methylsulfonyl)cyclohexyl)methyl)-5-(2-methoxy-4-(3,3,3-trifluoro-2-methylpropyl)phenyl)-1H-pyrazole-3-carboxamide]",150 nM,27 nM,,inhibition at 6 µM (full-length human RORγt; [2]): 104%
"CCn1nc(C(=O)NC[C@H]2CC[C@H](S(C)(=O)=O)CC2)c(C#N)c1-c1ccc(CC(C)C(F)(F)F)cc1OC (stereo partly drawn) [Example 123, 4-Cyano-1-ethyl-5-(2-methoxy-4-(3,3,3-trifluoro-2-methylpropyl)phenyl)-N-(((1r,4r)-4-(methylsulfonyl)cyclohexyl)methyl)-1H-pyrazole-3-carboxamide]",35 nM,9.6 nM,85%,
"CCn1nc(C(=O)NC[C@]2(O)CC[C@@H](S(C)(=O)=O)CC2)c(C#N)c1-c1ccc(CCC(F)(F)F)cc1OC [Example 124, 4-Cyano-1-ethyl-N-(((1s,4s)-1-hydroxy-4-(methylsulfonyl)cyclohexyl)methyl)-5-(2-methoxy-4-(3,3,3-trifluoropropyl)phenyl)-1H-pyrazole-3-carboxamide]",770 nM,170 nM,,inhibition at 6 µM (full-length human RORγt; [2]): 83%
"CCn1nc(C(=O)NC[C@H]2CC[C@H](S(C)(=O)=O)CC2)c(C#N)c1-c1ccc(CCC(F)(F)F)cc1OC [Example 125, 4-Cyano-1-ethyl-5-(2-methoxy-4-(3,3,3-trifluoropropyl)phenyl)-N-(((1r,4r)-4-(methylsulfonyl)cyclohexyl)methyl)-1H-pyrazole-3-carboxamide]",230 nM,44 nM,,inhibition at 6 µM (full-length human RORγt; HEK-293T): 85%
"CCn1nc(C(=O)NC[C@]2(O)CC[C@@H](S(C)(=O)=O)CC2)c(C#N)c1-c1ccc(CC(C)(C)C(F)(F)F)cc1OC [Example 126, 4-Cyano-1-ethyl-N-(((1s,4s)-1-hydroxy-4-(methylsulfonyl)cyclohexyl)methyl)-5-(2-methoxy-4-(3,3,3-trifluoro-2,2-dimethylpropyl)phenyl)-1H-pyrazole-3-carboxamide]",84 nM,12 nM,,inhibition at 6 µM (full-length human RORγt; HEK-293T): 101%
"CCn1nc(C(=O)NC[C@H]2CC[C@H](S(C)(=O)=O)CC2)c(C#N)c1-c1ccc(CC(C)(C)C(F)(F)F)cc1OC [Example 127, 4-Cyano-1-ethyl-5-(2-methoxy-4-(3,3,3-trifluoro-2,2-dimethylpropyl)phenyl)-N-(((1r,4r)-4-(methylsulfonyl)cyclohexyl)methyl)-1H-pyrazole-3-carboxamide]",20 nM,3.7 nM,,inhibition at 0.67 µM (full-length human RORγt; [4]): 94%
"CCn1nc(C(=O)NCC2(N)CCC(S(C)(=O)=O)CC2)c(Cl)c1-c1ccc(CC(C)C(F)(F)F)cc1OC (stereo not drawn) [Example 128, N-((1-Amino-4-(methylsulfonyl)cyclohexyl)methyl)-4-chloro-1-ethyl-5-(2-methoxy-4-(3,3,3-trifluoro-2-methylpropyl)phenyl)-1H-pyrazole-3-carboxamide]",850 nM,140 nM,63%,
"CCc1c(C(=O)NC[C@H]2CC[C@H](S(C)(=O)=O)CC2)nn(CC)c1-c1ccc(N[C@H](C)C(F)(F)F)cc1OC [Example 130, 1,4-Diethyl-5-(2-methoxy-4-(((R)-1,1,1-trifluoropropan-2-yl)amino)phenyl)-N-(((r,4R)-4-(methylsulfonyl)cyclohexyl)methyl)-1H-pyrazole-3-carboxamide]",61 nM,9.9 nM,100%,
"CCn1nc(C(=O)NC[C@H]2CC[C@H](S(C)(=O)=O)CC2)c(C(C)C)c1-c1ccc(N[C@H](C)C(F)(F)F)cc1OC [Example 131, 1-Ethyl-4-isopropyl-5-(2-methoxy-4-(((R)-1,1,1-trifluoropropan-2-yl)amino)phenyl)-N-(((1r,4R)-4-(methylsulfonyl)cyclohexyl)methyl)-1H-pyrazole-3-carboxamide]",140 nM,33 nM,100%,
"CCn1nc(C(=O)NC[C@H]2CC[C@H](S(=O)(=O)CC)CC2)c(Cl)c1-c1ccc(CC(C)(C)C(F)(F)F)cc1OC(F)F [Example 133, 4-Chloro-5-(2-(difluoromethoxy)-4-(3,3,3-trifluoro-2,2-dimethylpropyl)phenyl)-1-ethyl-N-(((1r,4r)-4-(ethylsulfonyl)cyclohexyl)methyl)-1H-pyrazole-3-carboxamide]",4.6 nM,,,"inhibition at […] (full-length human RORγt; [4]): 107%; Kd ([1]; ThermoFluor® Assay, Kd): 0.2 nM"
"CCn1nc(C(=O)NC[C@]2(C#N)CC[C@@H](S(C)(=O)=O)CC2)c(Cl)c1-c1ccc(CC(C)(C)C(F)(F)F)cc1OC(F)F [Example 134, 4-Chloro-N-(((1s*,4s*)-1-cyano-4-(methylsulfonyl)cyclohexyl)methyl)-5-(2-(difluoromethoxy)-4-(3,3,3-trifluoro-2,2-dimethylpropyl)phenyl)-1-ethyl-1H-pyrazole-3-carboxamide]",1.3 nM,0.2 nM,,inhibition at […] (full-length human RORγt; [4]): 102%
"CC(C)(O)Cn1nc(C(=O)NC[C@]2(O)CC[C@@H](S(C)(=O)=O)CC2)c(Cl)c1-c1ccc(CC(C)(C)C(F)(F)F)cc1OC(F)F [Example 144, 4-Chloro-5-(2-(difluoromethoxy)-4-(3,3,3-trifluoro-2,2-dimethylpropyl)phenyl)-1-(2-hydroxy-2-methylpropyl)-N-(((1s,4s)-1-hydroxy-4-(methylsulfonyl)cyclohexyl)methyl)-1H-pyrazole-3-carboxamide]",31 nM,11 nM,,inhibition at 6 µM (full-length human RORγt; [2]): 112%

# Continued, in another order:
IC50 (full-length human RORγt),"Kd [1, 3]",inhibition at 2 µM (full-length human RORγt; [4]),Structure (SMILES),further results
13 nM,2.5 nM,105%,"CC(C)(O)Cn1nc(C(=O)NC[C@H]2CC[C@H](S(C)(=O)=O)CC2)c(Cl)c1-c1ccc(CC(C)(C)C(F)(F)F)cc1OC(F)F [Example 145, 4-Chloro-5-(2-(difluoromethoxy)-4-(3,3,3-trifluoro-2,2-dimethylpropyl)phenyl)-1-(2-hydroxy-2-methylpropyl)-N-(((1r,4r)-4-(methylsulfonyl)cyclohexyl)methyl)-1H-pyrazole-3-carboxamide]",
15 nM,15 nM,,"Cc1c(C(=O)NC[C@]2(O)CC[C@@H](S(C)(=O)=O)CC2)nn(CC(C)(C)O)c1-c1ccc(CC(C)(C)C(F)(F)F)cc1OC(F)F [Example 146, 5-(2-(Difluoromethoxy)-4-(3,3,3-trifluoro-2,2-dimethylpropyl)phenyl)-1-(2-hydroxy-2-methylpropyl)-N-(((1s,4s)-1-hydroxy-4-(methylsulfonyl)cyclohexyl)methyl)-4-methyl-1H-pyrazole-3-carboxamide]","inhibition at 3 µM (full-length human RORγt; HEK-293T, 3 μM compound concentration (footnote *), read-out: RORγt (FL) Reporter Assay A or B, % inhibition): 106%"
2 nM,0.16 nM,,"COCCn1nc(C(=O)NC[C@H]2CC[C@H](S(C)(=O)=O)CC2)c(Cl)c1-c1ccc(CC(C)(C)C(F)(F)F)cc1OC(F)F [Example 148, 4-Chloro-5-(2-(difluoromethoxy)-4-(3,3,3-trifluoro-2,2-dimethylpropyl)phenyl)-1-(2-methoxyethyl)-N-(((1r,4r)-4-(methylsulfonyl)cyclohexyl)methyl)-1H-pyrazole-3-carboxamide]",inhibition at 0.67 µM (full-length human RORγt; [4]): 91%
6 nM,0.83 nM,99%,"COCCn1nc(C(=O)NC[C@]2(O)CC[C@@H](S(C)(=O)=O)CC2)c(Cl)c1-c1ccc(CC(C)(C)C(F)(F)F)cc1OC(F)F [Example 149, 4-Chloro-5-(2-(difluoromethoxy)-4-(3,3,3-trifluoro-2,2-dimethylpropyl)phenyl)-N-(((1s,4s)-1-hydroxy-4-(methylsulfonyl)cyclohexyl)methyl)-1-(2-methoxyethyl)-1H-pyrazole-3-carboxamide]",
13 nM,1.9 nM,95%,"COCCn1nc(C(=O)NC[C@]2(O)CC[C@@H](S(C)(=O)=O)CC2)c(C)c1-c1ccc(CC(C)(C)C(F)(F)F)cc1OC(F)F [Example 150, 5-(2-(Difluoromethoxy)-4-(3,3,3-trifluoro-2,2-dimethylpropyl)phenyl)-N-(((1s,4s)-1-hydroxy-4-(methylsulfonyl)cyclohexyl)methyl)-1-(2-methoxyethyl)-4-methyl-1H-pyrazole-3-carboxamide]",
23 nM,1.6 nM,,"C[C@H](Cc1ccc(-c2c(Cl)c(C(=O)NC[C@H]3CC[C@H](S(C)(=O)=O)CC3)nn2C)c(OC(F)F)c1)C(F)(F)F [Example 151, 4-Chloro-5-(2-(difluoromethoxy)-4-((R)-3,3,3-trifluoro-2-methylpropyl)phenyl)-1-methyl-N-(((1r,4R)-4-(methylsulfonyl)cyclohexyl)methyl)-1H-pyrazole-3-carboxamide]",inhibition at 1 µM (full-length human RORγt; [4]): 92%
4.5 nM,0.79 nM,,"Cn1nc(C(=O)NC[C@]2(O)CC[C@@H](S(C)(=O)=O)CC2)c(Cl)c1-c1ccc(CC(C)(C)C(F)(F)F)cc1OC(F)F [Example 154, 4-Chloro-5-(2-(difluoromethoxy)-4-(3,3,3-trifluoro-2,2-dimethylpropyl)phenyl)-N-(((1s,4s)-1-hydroxy-4-(methylsulfonyl)cyclohexyl)methyl)-1-methyl-1H-pyrazole-3-carboxamide]",inhibition at 0.67 µM (full-length human RORγt; [4]): 91%
